# Compound: O=C(Nc1cc(C(F)(F)F)cc(C(F)(F)F)c1)c1cc(Cl)ccc1O [IMD-0354] + Cc1cc(Nc2cc(N3CCN(C)CC3)nc(Sc3ccc(NC(=O)C4CC4)cc3)n2)n[nH]1 [Tozasertib] (partner 0.1 µM)
# Assay: relative viability (nuclei count vs DMSO), 5 days (fraction); higher = more cells survive
# Conditions: first compound 0.04 µM
# Outline: (§1)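 Relative viability was taken as the ratio of nuclei in treated wells to nuclei in vehicle wells. Lung cancer cell lines in 1536-well plates received compounds by pin tool one day after seeding, either one drug alone or a fixed anchor-drug dose plus five library-drug doses (not always all listed) in √10 steps. Nuclei were counted on 4× images after 5 days of treatment, and values are medians of duplicate plates.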
row,Cell Line,relative viability
1,HOP-62,0.46
2,SW 900,0.635
3,LU99A,0.326
4,BEN,0.53
5,HARA,0.102
6,NCI-H322M,0.469
7,LCLC-97TM1,0.2
8,NCI-H2009,0.877
9,A-427,0.204
10,NCI-H441,0.79
11,NCI-H661,0.319
12,NCI-H1734,0.267
13,NCI-H460,0.485
14,NCI-H2347,0.767
15,SW 1573,0.182
16,NCI-H1793,0.405

row,Cell Line,relative viability
1,201T,1.14
2,NCI-H1915,0.482
3,HCC-827,0.437
4,LXF-289,0.229
5,NCI-H23,0.338
6,NCI-H647,0.441
7,CAL-12T,0.399
8,NCI-H1651,0.662
9,EPLC-272H,0.256
10,NCI-H2228,0.181
11,NCI-H1355,0.598
12,NCI-H3122,0.468
13,NCI-H1437,0.457
14,NCI-H1755,0.566
15,NCI-H2023,0.338

# Same assay, conditions: first compound 0.1265 µM
row,Cell Line,relative viability
1,NCI-H358,0.1
2,NCI-H2405,0.727
3,HOP-62,0.374
4,SW 900,0.531
5,LU99A,0.254
6,BEN,0.51
7,HARA,0.132
8,NCI-H322M,0.471
9,LCLC-97TM1,0.223
10,NCI-H2009,0.752
11,A-427,0.211
12,NCI-H441,0.667
13,NCI-H661,0.344
14,NCI-H1734,0.267
15,NCI-H460,0.35
16,NCI-H2347,0.513
17,SW 1573,0.16

row,Cell Line,relative viability
1,NCI-H1793,0.321
2,201T,0.996
3,NCI-H1915,0.412
4,HCC-827,0.458
5,LXF-289,0.235
6,NCI-H23,0.376
7,NCI-H647,0.379
8,CAL-12T,0.307
9,NCI-H1651,0.658
10,EPLC-272H,0.241
11,NCI-H2228,0.256
12,NCI-H1355,0.528
13,NCI-H3122,0.421
14,NCI-H1437,0.394
15,NCI-H1755,0.627
16,NCI-H2023,0.296

# Same assay, conditions: first compound 0.4 µM
row,Cell Line,relative viability
1,NCI-H358,0.0993
2,NCI-H2405,0.732
3,HOP-62,0.263
4,SW 900,0.409
5,LU99A,0.267
6,BEN,0.329
7,HARA,0.105
8,NCI-H322M,0.387
9,LCLC-97TM1,0.171
10,NCI-H2009,0.51
11,A-427,0.232
12,NCI-H441,0.397
13,NCI-H661,0.34
14,NCI-H1734,0.265
15,NCI-H460,0.443
16,NCI-H2347,0.563
17,SW 1573,0.175

row,Cell Line,relative viability
1,NCI-H1793,0.233
2,201T,0.614
3,NCI-H1915,0.299
4,HCC-827,0.353
5,LXF-289,0.154
6,NCI-H23,0.275
7,NCI-H647,0.223
8,CAL-12T,0.242
9,NCI-H1651,0.317
10,EPLC-272H,0.16
11,NCI-H2228,0.275
12,NCI-H1355,0.594
13,NCI-H3122,0.248
14,NCI-H1437,0.289
15,NCI-H1755,0.435
16,NCI-H2023,0.23

# Same assay, conditions: first compound 1.265 µM
row,Cell Line,relative viability
1,NCI-H358,0.0845
2,NCI-H2405,0.346
3,HOP-62,0.228
4,SW 900,0.273
5,LU99A,0.244
6,BEN,0.468
7,HARA,0.0599
8,NCI-H322M,0.289
9,LCLC-97TM1,0.18
10,NCI-H2009,0.24
11,A-427,0.137
12,NCI-H441,0.295
13,NCI-H661,0.273
14,NCI-H1734,0.231
15,NCI-H460,0.127
16,NCI-H2347,0.505
17,SW 1573,0.0971

row,Cell Line,relative viability
1,NCI-H1793,0.15
2,201T,1.06
3,NCI-H1915,0.268
4,HCC-827,0.353
5,LXF-289,0.0929
6,NCI-H23,0.157
7,NCI-H647,0.169
8,CAL-12T,0.278
9,NCI-H1651,0.363
10,EPLC-272H,0.24
11,NCI-H2228,0.185
12,NCI-H1355,0.271
13,NCI-H3122,0.139
14,NCI-H1437,0.262
15,NCI-H1755,0.407
16,NCI-H2023,0.126

# Same assay, conditions: first compound 4 µM
row,Cell Line,relative viability
1,NCI-H358,0.0798
2,NCI-H2405,0.322
3,HOP-62,0.108
4,SW 900,0.225
5,LU99A,0.218
6,BEN,0.452
7,HARA,0.0875
8,NCI-H322M,0.359
9,LCLC-97TM1,0.116
10,NCI-H2009,0.139
11,A-427,0.148
12,NCI-H441,0.24
13,NCI-H661,0.257
14,NCI-H1734,0.117
15,NCI-H460,0.0269
16,NCI-H2347,0.233

row,Cell Line,relative viability
1,SW 1573,0.0737
2,NCI-H1793,0.191
3,201T,0.354
4,NCI-H1915,0.175
5,HCC-827,0.182
6,LXF-289,0.053
7,NCI-H23,0.186
8,CAL-12T,0.111
9,NCI-H1651,0.0982
10,EPLC-272H,0.113
11,NCI-H2228,0.175
12,NCI-H1355,0.258
13,NCI-H3122,0.119
14,NCI-H1437,0.224
15,NCI-H1755,0.294
16,NCI-H2023,0.117

# Compound: Cc1cnc(CNC(=O)c2c(=O)c3ccc(N4CCCN(C)CC4)nc3n3c2sc2ccccc23)cn1 [CX-5461] + Cc1nc(Nc2ncc(C(=O)Nc3c(C)cccc3Cl)s2)cc(N2CCN(CCO)CC2)n1 [Dasatinib] (partner 0.075 µM)
# Assay: as above
# Conditions: first compound 0.01 µM
# Outline: as §1
row,Cell Line,relative viability
1,NCI-H358,0.146
2,NCI-H2405,0.224
3,HOP-62,0.724
4,SW 900,0.45
5,LU99A,0.759
6,BEN,0.322
7,HARA,0.308
8,NCI-H322M,0.249
9,LCLC-97TM1,0.755
10,NCI-H2009,0.341
11,A-427,0.811
12,NCI-H441,0.593
13,NCI-H661,1.06
14,NCI-H1734,0.472
15,NCI-H460,0.554
16,NCI-H2347,0.336
17,SW 1573,0.528

row,Cell Line,relative viability
1,NCI-H1793,0.347
2,201T,0.652
3,NCI-H1915,0.292
4,HCC-827,0.346
5,LXF-289,0.257
6,NCI-H23,0.75
7,NCI-H647,0.18
8,CAL-12T,0.521
9,NCI-H1651,0.378
10,EPLC-272H,0.327
11,NCI-H2228,0.399
12,NCI-H1355,0.81
13,NCI-H3122,0.821
14,NCI-H1437,0.434
15,NCI-H1755,0.412
16,NCI-H2023,0.667

# Same assay, conditions: first compound 0.03162 µM
row,Cell Line,relative viability
1,NCI-H358,0.148
2,NCI-H2405,0.204
3,HOP-62,0.661
4,SW 900,0.541
5,LU99A,0.499
6,BEN,0.271
7,HARA,0.246
8,NCI-H322M,0.243
9,LCLC-97TM1,0.873
10,NCI-H2009,0.324
11,A-427,0.8
12,NCI-H441,0.486
13,NCI-H661,0.863
14,NCI-H1734,0.543
15,NCI-H460,0.435
16,NCI-H2347,0.295
17,SW 1573,0.396

row,Cell Line,relative viability
1,NCI-H1793,0.409
2,201T,0.555
3,NCI-H1915,0.358
4,HCC-827,0.277
5,LXF-289,0.204
6,NCI-H23,0.892
7,NCI-H647,0.175
8,CAL-12T,0.356
9,NCI-H1651,0.254
10,EPLC-272H,0.364
11,NCI-H2228,0.465
12,NCI-H1355,0.792
13,NCI-H3122,0.942
14,NCI-H1437,0.373
15,NCI-H1755,0.476
16,NCI-H2023,0.603

# Same assay, conditions: first compound 0.1 µM
row,Cell Line,relative viability
1,NCI-H358,0.176
2,NCI-H2405,0.197
3,HOP-62,0.704
4,SW 900,0.701
5,LU99A,0.439
6,BEN,0.313
7,HARA,0.213
8,NCI-H322M,0.267
9,LCLC-97TM1,0.791
10,NCI-H2009,0.305
11,A-427,0.758
12,NCI-H441,0.747
13,NCI-H661,0.9
14,NCI-H1734,0.471
15,NCI-H460,0.263
16,NCI-H2347,0.4

row,Cell Line,relative viability
1,SW 1573,0.302
2,NCI-H1793,0.368
3,201T,0.537
4,NCI-H1915,0.301
5,HCC-827,0.349
6,LXF-289,0.202
7,NCI-H23,0.834
8,NCI-H647,0.161
9,CAL-12T,0.329
10,EPLC-272H,0.387
11,NCI-H2228,0.28
12,NCI-H1355,0.665
13,NCI-H3122,0.828
14,NCI-H1437,0.431
15,NCI-H1755,0.461
16,NCI-H2023,0.245

# Same assay, conditions: first compound 0.3162 µM
row,Cell Line,relative viability
1,NCI-H358,0.0999
2,NCI-H2405,0.205
3,HOP-62,0.675
4,SW 900,0.4
5,LU99A,0.341
6,BEN,0.377
7,NCI-H322M,0.219
8,NCI-H2009,0.346
9,NCI-H441,0.419
10,NCI-H1734,0.405
11,NCI-H460,0.516
12,NCI-H2347,0.333
13,SW 1573,0.502
14,201T,0.542
15,NCI-H1915,0.299
16,HCC-827,0.35
17,LXF-289,0.103
18,NCI-H23,1.03
19,NCI-H647,0.162
20,CAL-12T,0.39
21,NCI-H1651,0.178
22,NCI-H2228,0.309
23,NCI-H1355,0.449
24,NCI-H3122,0.824
25,NCI-H1437,0.32
26,NCI-H1755,0.422
27,NCI-H2023,0.497

# Same assay, conditions: first compound 1 µM
row,Cell Line,relative viability
1,NCI-H358,0.12
2,NCI-H2405,0.193
3,HOP-62,0.489
4,SW 900,0.211
5,LU99A,0.172
6,BEN,0.279
7,HARA,0.213
8,NCI-H322M,0.267
9,LCLC-97TM1,0.701
10,NCI-H2009,0.262
11,A-427,0.539
12,NCI-H441,0.364
13,NCI-H661,0.4
14,NCI-H1734,0.25
15,NCI-H460,0.0464
16,NCI-H2347,0.328
17,SW 1573,0.17

row,Cell Line,relative viability
1,NCI-H1793,0.343
2,201T,0.477
3,NCI-H1915,0.297
4,HCC-827,0.298
5,LXF-289,0.154
6,NCI-H23,0.5
7,NCI-H647,0.0641
8,CAL-12T,0.205
9,NCI-H1651,0.112
10,EPLC-272H,0.412
11,NCI-H2228,0.0755
12,NCI-H1355,0.389
13,NCI-H3122,0.346
14,NCI-H1437,0.368
15,NCI-H1755,0.34
16,NCI-H2023,0.0768
